#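 Test compounds were applied to cells in 96-well plates for 48 hours at 5 doses. GI50: concentration for 50% inhibition of growth.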 Activity calls are given as the source filed them. Rule as the data show it: active = GI50 up to about 1.1 µM and inactive = higher.
# Columns and labels:
# Test in all cases: growth of human tumour cells (NCI), 48 h
# KM-20L2 = test system: KM-20L2
# HOP-92 = test system: HOP-92
# U-251 = test system: U-251
# UACC-62 = test system: UACC-62
# NCI-H522 = test system: NCI-H522
# LXFL 529 = test system: LXFL 529
# NCI-H460 = test system: NCI-H460
# SNB-75 = test system: SNB-75
# UACC-257 = test system: UACC-257
# DLD-1 = test system: DLD-1
# HCC 2998 = test system: HCC 2998
# TK-10 = test system: TK-10
# OVCAR-5 = test system: OVCAR-5
# HT-29 = test system: HT-29
# SNB-78 = test system: SNB-78
# SK-MEL-28 = test system: SK-MEL-28
# SN12C = test system: SN12C
# M19-MEL = test system: M19-MEL
# A549 = test system: A549
# OVCAR-3 = test system: OVCAR-3
# IGROV-1 = test system: IGROV-1
# UO-31 = test system: UO-31
# LOX IMVI = test system: LOX IMVI
# DMS-114 = test system: DMS-114
# CCRF-CEM = test system: CCRF-CEM
# A498 = test system: A498
# 786-0 = test system: 786-0
# HOP-62 = test system: HOP-62
# SR = test system: SR
# KM12 = test system: KM12
# EKVX = test system: EKVX
# M14 = test system: M14
# HCT-15 = test system: HCT-15
# SK-MEL-2 = test system: SK-MEL-2
# CAKI-1 = test system: CAKI-1
# SNB-19 = test system: SNB-19
# DMS-273 = test system: DMS-273
# SK-OV-3 = test system: SK-OV-3
# NCI-H23 = test system: NCI-H23
# SF-539 = test system: SF-539
# RXF 393 = test system: RXF 393
# XF498 = test system: XF498
# SF-295 = test system: SF-295
# Malme-3M = test system: Malme-3M
# K562 = test system: K562
# RXF 631 = test system: RXF 631
# OVCAR-4 = test system: OVCAR-4
# SF-268 = test system: SF-268
# OVCAR-8 = test system: OVCAR-8
# NCI-H226 = test system: NCI-H226
# ACHN = test system: ACHN
# HCT-116 = test system: HCT-116
# MOLT-4 = test system: MOLT-4
# COLO 205 = test system: COLO 205
# HL-60 = test system: HL-60
# RPMI-8226 = test system: RPMI-8226
# SW-620 = test system: SW-620
# SK-MEL-5 = test system: SK-MEL-5
# HOP-18 = test system: HOP-18
smiles,measurement,setting,value
O=c1c2ccccc2[nH]c2c(O)ccc(O)c12,GI50,KM-20L2,78.9 µM (inactive)
same,GI50,HOP-92,18.8 µM (inactive)
same,GI50,U-251,15.1 µM (inactive)
same,GI50,UACC-62,16.7 µM (inactive)
same,GI50,NCI-H522,15.1 µM (inactive)
same,GI50,LXFL 529,15.1 µM (inactive)
same,GI50,NCI-H460,24.9 µM (inactive)
same,GI50,SNB-75,> 10 µM (inactive)
same,GI50,UACC-257,18.1 µM (inactive)
same,GI50,DLD-1,> 10 µM (inactive)
same,GI50,HCC 2998,> 100 µM (inactive)
same,GI50,TK-10,26.3 µM (inactive)
same,GI50,OVCAR-5,> 76.9 µM (inactive)
same,GI50,HT-29,38.6 µM (inactive)
same,GI50,SNB-78,19 µM (inactive)
same,GI50,SK-MEL-28,18.8 µM (inactive)
same,GI50,SN12C,14.2 µM (inactive)
same,GI50,M19-MEL,24.9 µM (inactive)
same,GI50,A549,36.2 µM (inactive)
same,GI50,OVCAR-3,16.6 µM (inactive)
same,GI50,IGROV-1,15.1 µM (inactive)
same,GI50,UO-31,37.7 µM (inactive)
same,GI50,LOX IMVI,17.8 µM (inactive)
same,GI50,DMS-114,17.9 µM (inactive)
same,GI50,CCRF-CEM,5.58 µM (inactive)
same,GI50,A498,38.3 µM (inactive)
same,GI50,786-0,18.8 µM (inactive)
same,GI50,HOP-62,> 100 µM (inactive)
same,GI50,SR,7.33 µM (inactive)
same,GI50,KM12,45.1 µM (inactive)
same,GI50,EKVX,> 41.7 µM (inactive)
same,GI50,M14,15.9 µM (inactive)
same,GI50,HCT-15,17.9 µM
same,GI50,SK-MEL-2,29.4 µM (inactive)
same,GI50,CAKI-1,13.9 µM (inactive)
same,GI50,SNB-19,38.7 µM (inactive)
same,GI50,DMS-273,16.6 µM (inactive)
same,GI50,SK-OV-3,25.7 µM (inactive)
same,GI50,NCI-H23,27.4 µM (inactive)
same,GI50,SF-539,27.6 µM (inactive)
same,GI50,RXF 393,11.7 µM (inactive)
same,GI50,XF498,16.8 µM (inactive)
same,GI50,SF-295,17.3 µM (inactive)
same,GI50,Malme-3M,24 µM (inactive)
same,GI50,K562,17.5 µM (inactive)
same,GI50,RXF 631,21.8 µM (inactive)
same,GI50,OVCAR-4,3.39 µM (inactive)
same,GI50,SF-268,25.4 µM (inactive)
same,GI50,OVCAR-8,17.9 µM (inactive)
same,GI50,NCI-H226,25.6 µM (inactive)
same,GI50,ACHN,17.3 µM (inactive)
same,GI50,HCT-116,20.7 µM (inactive)
same,GI50,MOLT-4,7.91 µM (inactive)
same,GI50,COLO 205,> 10 µM (inactive)
same,GI50,HL-60,2.64 µM (inactive)
same,GI50,RPMI-8226,22.8 µM (inactive)
same,GI50,SW-620,18 µM (inactive)
CC1=C(O)C(=O)C2C(=O)C1C(C)C2c1ccc(Cl)cc1 (stereo not drawn),GI50,HOP-92,> 100 µM (inactive)
same,GI50,SK-MEL-5,> 100 µM (inactive)
same,GI50,U-251,> 100 µM (inactive)
same,GI50,UACC-62,> 100 µM (inactive)
same,GI50,NCI-H522,> 100 µM (inactive)
same,GI50,LXFL 529,> 100 µM (inactive)
same,GI50,SNB-75,72.3 µM (inactive)
same,GI50,DLD-1,> 100 µM (inactive)
same,GI50,HCC 2998,> 100 µM (inactive)
same,GI50,TK-10,> 100 µM (inactive)
same,GI50,OVCAR-5,> 100 µM (inactive)
same,GI50,HT-29,> 100 µM (inactive)
same,GI50,SNB-78,> 100 µM (inactive)
same,GI50,SK-MEL-28,> 100 µM (inactive)
same,GI50,M19-MEL,> 100 µM (inactive)
same,GI50,A549,> 100 µM (inactive)
same,GI50,OVCAR-3,> 100 µM (inactive)
same,GI50,IGROV-1,> 100 µM (inactive)
same,GI50,UO-31,> 100 µM (inactive)
same,GI50,LOX IMVI,> 100 µM (inactive)
same,GI50,CCRF-CEM,> 100 µM (inactive)
same,GI50,A498,> 100 µM (inactive)
same,GI50,786-0,> 100 µM (inactive)
same,GI50,HOP-62,> 100 µM (inactive)
same,GI50,SR,> 100 µM (inactive)
same,GI50,KM12,> 100 µM (inactive)
same,GI50,EKVX,> 100 µM (inactive)
same,GI50,M14,> 100 µM (inactive)
same,GI50,HCT-15,> 100 µM
same,GI50,SK-MEL-2,> 100 µM (inactive)
same,GI50,CAKI-1,> 100 µM (inactive)
same,GI50,SNB-19,> 100 µM (inactive)
same,GI50,DMS-273,> 100 µM (inactive)
same,GI50,SK-OV-3,> 100 µM (inactive)
same,GI50,NCI-H23,> 100 µM (inactive)
same,GI50,SF-539,> 100 µM (inactive)
same,GI50,RXF 393,> 100 µM (inactive)
same,GI50,XF498,> 100 µM (inactive)
same,GI50,SF-295,> 100 µM (inactive)
same,GI50,Malme-3M,> 100 µM (inactive)
same,GI50,K562,> 100 µM (inactive)
same,GI50,RXF 631,> 100 µM (inactive)
same,GI50,OVCAR-4,> 100 µM (inactive)
same,GI50,SF-268,> 100 µM (inactive)
same,GI50,OVCAR-8,> 100 µM (inactive)
same,GI50,NCI-H226,> 100 µM (inactive)
same,GI50,ACHN,> 100 µM (inactive)
same,GI50,MOLT-4,> 100 µM (inactive)
same,GI50,COLO 205,> 100 µM (inactive)
same,GI50,HL-60,> 100 µM (inactive)
same,GI50,RPMI-8226,> 100 µM (inactive)
same,GI50,SW-620,> 100 µM (inactive)
OCC12C3C4C1C1C2C3C41CO (stereo not drawn),GI50,KM-20L2,> 100 µM (inactive)
same,GI50,HOP-92,> 100 µM (inactive)
same,GI50,SK-MEL-5,> 100 µM (inactive)
same,GI50,U-251,> 100 µM (inactive)
same,GI50,UACC-62,> 100 µM (inactive)
same,GI50,LXFL 529,> 100 µM (inactive)
same,GI50,NCI-H460,> 100 µM (inactive)
same,GI50,UACC-257,> 100 µM (inactive)
same,GI50,DLD-1,> 100 µM (inactive)
same,GI50,HCC 2998,> 100 µM (inactive)
same,GI50,TK-10,> 100 µM (inactive)
same,GI50,OVCAR-5,> 100 µM (inactive)
same,GI50,HT-29,> 100 µM (inactive)
same,GI50,SNB-78,> 100 µM (inactive)
same,GI50,SK-MEL-28,> 100 µM (inactive)
same,GI50,SN12C,> 100 µM (inactive)
same,GI50,M19-MEL,> 100 µM (inactive)
same,GI50,A549,> 100 µM (inactive)
same,GI50,OVCAR-3,> 100 µM (inactive)
same,GI50,HOP-18,> 100 µM (inactive)
same,GI50,IGROV-1,> 100 µM (inactive)
same,GI50,UO-31,> 100 µM (inactive)
same,GI50,LOX IMVI,> 100 µM (inactive)
same,GI50,DMS-114,> 100 µM (inactive)
same,GI50,CCRF-CEM,> 100 µM (inactive)
same,GI50,A498,> 100 µM (inactive)
same,GI50,786-0,> 100 µM (inactive)
same,GI50,HOP-62,> 100 µM (inactive)
same,GI50,EKVX,> 100 µM (inactive)
same,GI50,M14,> 100 µM (inactive)
same,GI50,HCT-15,> 100 µM
same,GI50,CAKI-1,> 100 µM (inactive)
same,GI50,SNB-19,> 100 µM (inactive)
same,GI50,SK-OV-3,> 100 µM (inactive)
same,GI50,NCI-H23,> 100 µM (inactive)
same,GI50,SF-539,> 100 µM (inactive)
same,GI50,XF498,> 100 µM (inactive)
same,GI50,SF-295,> 100 µM (inactive)
same,GI50,Malme-3M,> 100 µM (inactive)
same,GI50,K562,> 100 µM (inactive)
same,GI50,RXF 631,> 100 µM (inactive)
same,GI50,OVCAR-4,> 100 µM (inactive)
same,GI50,SF-268,> 100 µM (inactive)
same,GI50,OVCAR-8,> 100 µM (inactive)
same,GI50,NCI-H226,> 100 µM (inactive)
same,GI50,ACHN,> 100 µM (inactive)
same,GI50,MOLT-4,> 100 µM (inactive)
same,GI50,COLO 205,> 100 µM (inactive)
same,GI50,RPMI-8226,> 100 µM (inactive)
same,GI50,SW-620,> 100 µM (inactive)
CCOC(=O)C/N=c1\nc(SC)sc2c(C(=O)OCC)nc(Sc3ccccc3)n12,GI50,KM-20L2,> 100 µM (inactive)
same,GI50,HOP-92,20.8 µM (inactive)
same,GI50,SK-MEL-5,> 100 µM (inactive)
same,GI50,UACC-62,> 100 µM (inactive)
same,GI50,NCI-H522,7.18 µM (inactive)
same,GI50,LXFL 529,14.8 µM (inactive)
same,GI50,UACC-257,28.6 µM (inactive)
same,GI50,DLD-1,34.2 µM (inactive)
same,GI50,HCC 2998,40.1 µM (inactive)
same,GI50,TK-10,25.9 µM (inactive)
same,GI50,OVCAR-5,> 100 µM (inactive)
same,GI50,HT-29,> 100 µM (inactive)
same,GI50,SN12C,91.4 µM (inactive)
same,GI50,M19-MEL,34 µM (inactive)
same,GI50,A549,> 10 µM (inactive)
same,GI50,OVCAR-3,30.3 µM (inactive)
same,GI50,HOP-18,> 100 µM (inactive)
same,GI50,IGROV-1,83.2 µM (inactive)
same,GI50,UO-31,17.8 µM (inactive)
same,GI50,LOX IMVI,6.76 µM (inactive)
same,GI50,DMS-114,62.7 µM (inactive)
same,GI50,CCRF-CEM,8.13 µM (inactive)
same,GI50,786-0,21.6 µM (inactive)
same,GI50,HOP-62,52.1 µM (inactive)
same,GI50,SR,4.74 µM (inactive)
same,GI50,KM12,> 100 µM (inactive)
same,GI50,EKVX,45.1 µM (inactive)
same,GI50,M14,> 100 µM (inactive)
same,GI50,SK-MEL-2,58.9 µM (inactive)
same,GI50,CAKI-1,13.4 µM (inactive)
same,GI50,SK-OV-3,> 100 µM (inactive)
same,GI50,XF498,41.2 µM (inactive)
same,GI50,Malme-3M,32.6 µM (inactive)
same,GI50,K562,16.1 µM (inactive)
same,GI50,RXF 631,25.3 µM (inactive)
same,GI50,OVCAR-4,41.2 µM (inactive)
same,GI50,SF-268,> 100 µM (inactive)
same,GI50,OVCAR-8,39.3 µM (inactive)
same,GI50,NCI-H226,26 µM (inactive)
same,GI50,HCT-116,32.1 µM (inactive)
same,GI50,COLO 205,> 100 µM (inactive)
same,GI50,HL-60,> 100 µM (inactive)
same,GI50,RPMI-8226,8.41 µM (inactive)
same,GI50,SW-620,> 100 µM (inactive)

# Reference: ChEMBL document CHEMBL1201862, “PubChem BioAssay data set” (2004)
